Laboratory results reported in PubChem BioAssay AID256 (DTP/NCI, 2004).
Several values for one entry are separate records, joined by “and”; a condition that tells them apart may be missing. Identical values can stand only once. Inconclusive results and toxic doses are left out. Rule for the calls: active = survival T/C of 150% or more; inactive = T/C below 125% in these data.

Test system: CD2F1 mice, L1210 leukemia ip, survival T/C
Experiment: NCI In Vivo Anticancer Drug Screen. Data for tumor model L1210 Leukemia (intraperitoneal) in CD2F1 (CDF1) mice
Conditions: endpoint: mean survival time, higher = longer survival
Summary of the method: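 In this screen, transplantable tumors were grown in mice given either the compound or its vehicle. Results were expressed as the treated measurement relative to the control measurement.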

[1] = dose: 100.0 mg/kg/injection, schedule: Q01DX009 (ip), vehicle: other
[2] = dose: 200.0 mg/kg/injection, schedule: Q01DX009 (ip), vehicle: other
[3] = dose: 100.0 mg/kg/injection, schedule: Q04DX003 (ip), vehicle: saline with Tween-80
[4] = dose: 200.0 mg/kg/injection, schedule: Q04DX003 (ip), vehicle: saline with Tween-80
[5] = dose: 400.0 mg/kg/injection, schedule: Q04DX003 (ip), vehicle: saline with Tween-80
[6] = dose: 25.0 mg/kg/injection, schedule: Q04DX003 (ip), vehicle: saline with Tween-80
[7] = dose: 50.0 mg/kg/injection, schedule: Q04DX003 (ip), vehicle: saline with Tween-80
[8] = dose: 100.0 mg/kg/injection, schedule: Q01DX001 (ip), vehicle: saline with Tween-80
[9] = dose: 200.0 mg/kg/injection, schedule: Q01DX001 (ip), vehicle: saline with Tween-80
[10] = dose: 400.0 mg/kg/injection, schedule: Q01DX001 (ip), vehicle: saline with Tween-80
[11] = dose: 100.0 mg/kg/injection, schedule: Q01DX009 (ip), vehicle: saline with Tween-80
[12] = dose: 200.0 mg/kg/injection, schedule: Q01DX009 (ip), vehicle: saline with Tween-80

Measured: T/C

O=C(CN1CC1)NCCCCCCCCNC(=O)CN1CC1
inactive: dose: 4.4 mg/kg/injection, schedule: Q01DX009 (ip), vehicle: carboxymethylcellulose (CMC) 116 % of control | dose: 6.6 mg/kg/injection, schedule: Q01DX009 (ip), vehicle: carboxymethylcellulose (CMC) 122 % of control | dose: 22.0 mg/kg/injection, schedule: Q01DX001 (ip), vehicle: carboxymethylcellulose (CMC) 120 % of control | dose: 33.0 mg/kg/injection, schedule: Q01DX001 (ip), vehicle: carboxymethylcellulose (CMC) 123 % of control

CCC12CC(Br)C(C1)OC2=O (stereo not given)
inactive: [1] 96 % of control | [2] 101 % of control | dose: 400.0 mg/kg/injection, schedule: Q01DX009 (ip), vehicle: other 100 % of control

CN1C(=O)c2ccccc2C1(/N=C/c1ccccc1)c1ccccc1 (stereo not given)
inactive: [3] 96 % of control | [4] 96 % of control | [5] 96 % of control

COc1c2c(c(OC)c3c1C(=O)c1ccccc1C3=O)CC=CC2
inactive: dose: 12.5 mg/kg/injection, schedule: Q01DX009 (ip), vehicle: other 105 % of control | dose: 25.0 mg/kg/injection, schedule: Q01DX009 (ip), vehicle: other 100 % of control | dose: 44.0 mg/kg/injection, schedule: Q01DX009 (ip), vehicle: other 92 % of control | dose: 50.0 mg/kg/injection, schedule: Q01DX009 (ip), vehicle: other 96 % of control | dose: 66.0 mg/kg/injection, schedule: Q01DX009 (ip), vehicle: other 90 % of control | [1] 121 % of control and 90 % of control | [2] 105 % of control

C=C1CC(=O)N(c2ccc(OC)cc2)C1=O
inactive: [6] 100 % of control | [7] 107 % of control | [3] 104 % of control

COc1cc([N+](=O)[O-])c(C(=O)O)c(C(=O)O)c1OC
inactive: dose: 12.5 mg/kg/injection, schedule: Q04DX002 (ip), vehicle: saline with Tween-80 104 % of control | dose: 25.0 mg/kg/injection, schedule: Q04DX002 (ip), vehicle: saline with Tween-80 96 % of control | dose: 50.0 mg/kg/injection, schedule: Q04DX002 (ip), vehicle: saline with Tween-80 104 % of control

CC1(C)C([N+](C)(C)C)CS1(=O)=O (stereo not given)
inactive: dose: 100.0 mg/kg/injection, schedule: Q01DX001 (ip), vehicle: saline 105 % of control | dose: 100.0 mg/kg/injection, schedule: Q04DX003 (ip), vehicle: saline 96 % of control | dose: 200.0 mg/kg/injection, schedule: Q01DX001 (ip), vehicle: saline 103 % of control | dose: 200.0 mg/kg/injection, schedule: Q04DX003 (ip), vehicle: saline 101 % of control | dose: 400.0 mg/kg/injection, schedule: Q01DX001 (ip), vehicle: saline 103 % of control | dose: 400.0 mg/kg/injection, schedule: Q04DX003 (ip), vehicle: saline 96 % of control

O=C(O)C1C2C=CC3(O2)C(=O)N(Cc2ccccc2)C(=O)C13 (stereo not given)
inactive: dose: 100.0 mg/kg/injection, schedule: Q04DX002 (ip), vehicle: saline with Tween-80 95 % of control | dose: 200.0 mg/kg/injection, schedule: Q04DX002 (ip), vehicle: saline with Tween-80 103 % of control | dose: 400.0 mg/kg/injection, schedule: Q04DX002 (ip), vehicle: saline with Tween-80 98 % of control

COC(=O)C1C(O)C(C)C(O)C(C)(O)C=C(C)C2=C3C(=C(C)C(=O)c4c(O)c(c(C)c(OC(C)=O)c43)NC(=O)C(C)=C/C=C\C(C)(O)C(O)C(C)C1O)OCO2 (stereo not given)
inactive: dose: 12.5 mg/kg/injection, schedule: Q04DX003 (ip), vehicle: saline with Tween-80 96 % of control | [6] 101 % of control | [7] 101 % of control | [3] 111 % of control

CO[Si](c1ccccc1)(c1ccccc1)c1cccc2ccccc12
inactive: dose: 75.0 mg/kg/injection, schedule: Q04DX003 (ip), vehicle: saline 89 % of control | dose: 150.0 mg/kg/injection, schedule: Q04DX003 (ip), vehicle: saline 91 % of control | dose: 300.0 mg/kg/injection, schedule: Q04DX003 (ip), vehicle: saline 95 % of control

NCc1ccncc1
inactive: dose: 100.0 mg/kg/injection, schedule: Q04DX002 (ip), vehicle: saline 106 % of control | dose: 200.0 mg/kg/injection, schedule: Q04DX002 (ip), vehicle: saline 95 % of control | dose: 400.0 mg/kg/injection, schedule: Q04DX002 (ip), vehicle: saline 98 % of control

NC(=O)c1ccn(C2OC(CO)C(O)C2O)n1 (stereo not given)
inactive: dose: 200.0 mg/kg/injection, schedule: Q01DX005 (ip), vehicle: other 106 % of control | dose: 400.0 mg/kg/injection, schedule: Q01DX005 (ip), vehicle: other 107 % of control | dose: 800.0 mg/kg/injection, schedule: Q01DX005 (ip), vehicle: other 117 % of control

Cc1ccc(S(=O)(=O)OC2COC3C(OS(=O)(=O)c4ccc(C)cc4)COC23)cc1 (stereo not given)
inactive: [8] 93 % of control | [9] 89 % of control | [10] 88 % of control

COC(=O)CCC(=O)N(C)CCc1c[nH]c2ccccc12
inactive: [11] 100 % of control | [3] 93 % of control | [12] 94 % of control | [4] 93 % of control | dose: 400.0 mg/kg/injection, schedule: Q01DX009 (ip), vehicle: saline with Tween-80 100 % of control | [5] 98 % of control

CC(O)CC1CC(=O)CCC1=O (stereo not given)
inactive: [8] 98 % of control | [9] 103 % of control | [10] 95 % of control

CCOC(=O)N1Cc2cc3ccc(OC)cc3nc2C1
inactive: [8] 98 % of control | [9] 101 % of control | [10] 103 % of control

CN(C)c1ccc(NC(=S)Nc2ccc(N(C)C)cc2)cc1
inactive: dose: 25.0 mg/kg/injection, schedule: Q01DX001 (ip), vehicle: saline with Tween-80 97 % of control | dose: 50.0 mg/kg/injection, schedule: Q01DX001 (ip), vehicle: saline with Tween-80 102 % of control | [8] 94 % of control

Nc1ccc(/C=C/C(=O)Nc2ccc(S(=O)(=O)F)cc2)cc1
inactive: [8] 98 % of control | [9] 95 % of control

CN(C)c1ncnc2c1cnn2C1OC(CO)C(O)C1O (stereo not given)
inactive: dose: 12.5 mg/kg/injection, schedule: Q01DX005 (ip), vehicle: water 93 % of control | dose: 25.0 mg/kg/injection, schedule: Q01DX005 (ip), vehicle: water 90 % of control | dose: 50.0 mg/kg/injection, schedule: Q01DX005 (ip), vehicle: water 107 % of control | dose: 100.0 mg/kg/injection, schedule: Q01DX005 (ip), vehicle: water 100 % of control | dose: 200.0 mg/kg/injection, schedule: Q01DX005 (ip), vehicle: water 100 % of control

Oc1ccccc1-c1ccccc1
inactive: dose: 50.0 mg/kg/injection, schedule: Q01DX009 (ip), vehicle: saline with Tween-80 98 % of control | [11] 98 % of control | [12] 98 % of control

[N-]=[N+]=c1c(=O)c2ccccc2c1=O
inactive: [8] 96 % of control | [9] 94 % of control | [10] 104 % of control

CCOC(=O)Nc1cc(NC(C)CCCN(CC)CC)c2ncc(-c3cc(OC)c(OC)c(OC)c3)nc2n1 (stereo not given) (tested in a mixture with another compound)
inactive: dose: 50.0 mg/kg/injection, schedule: Q01DX009 (ip), vehicle: saline 89 % of control | dose: 100.0 mg/kg/injection, schedule: Q01DX009 (ip), vehicle: saline 89 % of control | dose: 200.0 mg/kg/injection, schedule: Q01DX009 (ip), vehicle: saline 89 % of control

CC1(C)CC(NC(=O)CSc2ncnc3nc[nH]c23)CC(C)(C)N1O
inactive: dose: 12.5 mg/kg/injection, schedule: Q01DX005 (ip), vehicle: saline 106 % of control | dose: 25.0 mg/kg/injection, schedule: Q01DX005 (ip), vehicle: saline 98 % of control | dose: 50.0 mg/kg/injection, schedule: Q01DX005 (ip), vehicle: saline 98 % of control | dose: 100.0 mg/kg/injection, schedule: Q01DX005 (ip), vehicle: saline 98 % of control | dose: 200.0 mg/kg/injection, schedule: Q01DX005 (ip), vehicle: saline 98 % of control

Cc1cc(CSC(=N)N)c(C)cc1CSC(=N)N
inactive: dose: 5.0 mg/kg/injection, schedule: Q01DX009 (ip), vehicle: saline with Tween-80 92 % of control | dose: 5.0 mg/kg/injection, schedule: Q04DX003 (ip), vehicle: saline with Tween-80 106 % of control | dose: 10.0 mg/kg/injection, schedule: Q01DX009 (ip), vehicle: saline with Tween-80 101 % of control | dose: 10.0 mg/kg/injection, schedule: Q04DX003 (ip), vehicle: saline with Tween-80 106 % of control | dose: 20.0 mg/kg/injection, schedule: Q01DX009 (ip), vehicle: saline with Tween-80 95 % of control | dose: 20.0 mg/kg/injection, schedule: Q04DX003 (ip), vehicle: saline with Tween-80 101 % of control
